Test results from the supplement of paper PMC10307832.

Tests used:
Assay in all cases: relative viability (nuclei count vs DMSO), 5 days (fraction); higher = more cells survive
VE-821 + AZD7762 = compound: CS(=O)(=O)c1ccc(-c2cnc(N)c(C(=O)Nc3ccccc3)n2)cc1 [VE-821] + NC(=O)Nc1cc(-c2cccc(F)c2)sc1C(=O)N[C@H]1CCCNC1 [AZD7762] (partner 0.2 µM)
How it was run: (§1)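 Dosing by pin tool came one day after lung cancer cell lines were seeded in 1536-well plates, using either one drug or a fixed anchor-drug dose plus five library-drug doses (not always all listed) in √10 steps. After 5 days, nuclei were counted on 4× images. Relative viability is treated-well nuclei count divided by vehicle-well nuclei count, and values are medians of duplicate plates.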

VE-821 + Pemetrexed = compound: CS(=O)(=O)c1ccc(-c2cnc(N)c(C(=O)Nc3ccccc3)n2)cc1 [VE-821] + Nc1nc2[nH]cc(CCc3ccc(C(=O)N[C@@H](CCC(=O)O)C(=O)O)cc3)c2c(=O)[nH]1 [Pemetrexed] (partner 0.2 µM)
How it was run: as §1

VE-821 + Decitabine = compound: CS(=O)(=O)c1ccc(-c2cnc(N)c(C(=O)Nc3ccccc3)n2)cc1 [VE-821] + Nc1ncn([C@H]2C[C@H](O)[C@@H](CO)O2)c(=O)n1 [Decitabine] (partner 2 µM)
How it was run: as §1

Ruxolitinib + Trametinib = compound: N#CC[C@H](C1CCCC1)n1cc(-c2ncnc3[nH]ccc23)cn1 [Ruxolitinib] + CC(=O)Nc1cccc(-n2c(=O)n(C3CC3)c(=O)c3c(Nc4ccc(I)cc4F)n(C)c(=O)c(C)c32)c1 [Trametinib] (partner 0.02 µM)
How it was run: as §1

| Cell Line | relative viability (VE-821 + AZD7762; first compound 0.08 µM) | relative viability (VE-821 + AZD7762; first compound 0.253 µM) | relative viability (VE-821 + AZD7762; first compound 0.8 µM) | relative viability (VE-821 + AZD7762; first compound 2.53 µM) | relative viability (VE-821 + AZD7762; first compound 8 µM) | relative viability (VE-821 + Pemetrexed; first compound 0.08 µM) | relative viability (VE-821 + Pemetrexed; first compound 0.253 µM) | relative viability (VE-821 + Pemetrexed; first compound 0.8 µM) | relative viability (VE-821 + Pemetrexed; first compound 2.53 µM) | relative viability (VE-821 + Pemetrexed; first compound 8 µM) | relative viability (VE-821 + Decitabine; first compound 0.08 µM) | relative viability (VE-821 + Decitabine; first compound 0.253 µM) | relative viability (VE-821 + Decitabine; first compound 0.8 µM) | relative viability (VE-821 + Decitabine; first compound 2.53 µM) | relative viability (VE-821 + Decitabine; first compound 8 µM) | relative viability (Ruxolitinib + Trametinib; first compound 0.08 µM) | relative viability (Ruxolitinib + Trametinib; first compound 0.253 µM) | relative viability (Ruxolitinib + Trametinib; first compound 0.8 µM) | relative viability (Ruxolitinib + Trametinib; first compound 2.53 µM) | relative viability (Ruxolitinib + Trametinib; first compound 8 µM) |
| --- | --- | --- | --- | --- | --- | --- | --- | --- | --- | --- | --- | --- | --- | --- | --- | --- | --- | --- | --- | --- |
| 201T | 0.67 | 0.578 | 0.585 | 0.648 | 0.46 | 0.333 | 0.303 | 0.324 | 0.293 | 0.231 | 0.887 | 0.878 | 0.887 | 0.918 | 0.659 | 0.753 | 0.803 | 0.927 | 0.907 | 0.922 |
| A549 | – | – | – | – | – | – | – | – | – | – | 0.319 | 0.454 | 0.221 | 0.318 | 0.281 | – | – | – | – | – |
| A-427 | 0.767 | 0.599 | 0.417 | 0.362 | 0.327 | 0.997 | 0.949 | 0.947 | 0.998 | 0.474 | 0.592 | 0.53 | 0.587 | 0.572 | 0.442 | 0.808 | 0.757 | 0.96 | 0.636 | 0.728 |
| ABC-1 | 0.86 | 0.767 | 0.94 | 0.714 | 0.628 | – | – | – | – | – | 1.13 | 0.974 | 0.809 | 0.903 | 0.989 | – | – | – | – | – |
| BEN | 0.651 | 0.62 | 0.675 | 0.505 | 0.396 | 0.839 | 0.678 | 0.719 | 0.799 | 0.581 | 0.699 | 0.679 | 0.687 | 0.768 | 0.644 | 1.01 | 1.01 | 1.13 | 0.99 | 1.35 |
| CAL-12T | 0.568 | 0.514 | 0.512 | 0.352 | 0.239 | 1.22 | 1.14 | 1.04 | 1.1 | 0.759 | – | – | – | – | – | 0.341 | 0.375 | 0.376 | 0.241 | 0.31 |
| COR-L23 | – | – | – | – | – | 0.198 | 0.211 | 0.196 | 0.197 | 0.16 | 0.538 | 0.459 | 0.599 | 0.58 | 0.468 | 0.766 | 0.616 | 0.878 | 0.276 | 0.508 |
| COR-L 105 | – | – | – | – | – | 1.07 | 0.965 | 0.74 | 1.04 | 0.712 | 0.666 | 0.579 | 0.58 | 0.613 | 0.518 | – | 0.472 | 0.424 | 0.381 | 0.432 |
| ChaGo-K-1 | 0.884 | 0.729 | 0.866 | 0.747 | 0.48 | 0.28 | 0.333 | 0.274 | 0.261 | 0.253 | 0.55 | 0.493 | 0.506 | 0.537 | 0.559 | 0.885 | 0.887 | 0.828 | 0.803 | 0.765 |
| EKVX | 0.754 | 0.638 | 0.696 | 0.744 | 0.424 | 0.422 | 0.373 | 0.419 | 0.341 | 0.227 | 0.406 | 0.366 | 0.322 | 0.327 | 0.38 | – | 0.318 | 0.348 | 0.265 | 0.361 |
| EMC-BAC-2 | 1.15 | 1.02 | 1.12 | 1.19 | 0.587 | 0.45 | 0.391 | 0.427 | 0.371 | 0.308 | 1.07 | 0.961 | 0.996 | 0.969 | 0.826 | 0.886 | 0.806 | 1.08 | 0.768 | 0.948 |
| EPLC-272H | 0.163 | 0.149 | 0.2 | 0.188 | 0.127 | 0.347 | 0.36 | 0.218 | 0.141 | 0.0907 | 0.395 | 0.359 | 0.404 | 0.408 | 0.345 | 0.322 | 0.334 | 0.41 | 0.286 | 0.337 |
| H3255 | 0.96 | 0.927 | 0.913 | 0.932 | 0.649 | 0.6 | 0.583 | 0.61 | 0.604 | 0.517 | 0.655 | 0.551 | 0.614 | 0.752 | 0.596 | – | 0.548 | 0.725 | 0.465 | 0.648 |
| HARA | 0.256 | 0.315 | 0.145 | 0.158 | 0.249 | 0.253 | 0.232 | 0.201 | 0.169 | 0.131 | 0.551 | 0.636 | 0.613 | 0.615 | 0.516 | 0.639 | 0.622 | 1.07 | 0.269 | 0.775 |
| HCC-15 | 1.35 | 0.434 | 1.23 | 1.29 | 1.26 | 0.219 | 0.23 | 0.21 | 0.211 | 0.179 | 0.74 | 0.726 | 0.69 | 0.954 | 0.766 | 0.348 | 0.382 | 0.395 | 0.322 | 0.355 |
| HCC-44 | 0.94 | 0.944 | 1.07 | 0.964 | 0.914 | 0.613 | 0.649 | 0.596 | 0.479 | 0.447 | 0.9 | 0.963 | 1.05 | 1.04 | 1.04 | 1.04 | 0.971 | 0.997 | 0.753 | 1.02 |
| HCC-78 | 0.679 | 0.626 | 0.5 | 0.58 | 0.392 | 0.875 | 0.904 | 0.903 | 0.853 | 0.89 | 0.619 | 0.597 | 0.719 | 0.785 | 0.699 | 0.679 | 0.7 | 0.609 | 0.45 | 0.517 |
| HCC-366 | 0.235 | 0.148 | 0.0505 | 0.056 | 0.0429 | 0.159 | 0.127 | 0.144 | 0.0815 | 0.06 | 0.398 | 0.381 | 0.323 | 0.226 | 0.121 | 0.33 | 0.319 | 0.432 | 0.239 | 0.231 |
